# Assay results as given in patent US20080031982A1 (Metaproteomics, LLC, priority 2006, published 2008).
# Assays:
# IKKβ = target: T1, IKKβ (Homo sapiens, UniProt O14920); assay: KinaseProfiler Assay
# T1 sequence (O14920 1-756): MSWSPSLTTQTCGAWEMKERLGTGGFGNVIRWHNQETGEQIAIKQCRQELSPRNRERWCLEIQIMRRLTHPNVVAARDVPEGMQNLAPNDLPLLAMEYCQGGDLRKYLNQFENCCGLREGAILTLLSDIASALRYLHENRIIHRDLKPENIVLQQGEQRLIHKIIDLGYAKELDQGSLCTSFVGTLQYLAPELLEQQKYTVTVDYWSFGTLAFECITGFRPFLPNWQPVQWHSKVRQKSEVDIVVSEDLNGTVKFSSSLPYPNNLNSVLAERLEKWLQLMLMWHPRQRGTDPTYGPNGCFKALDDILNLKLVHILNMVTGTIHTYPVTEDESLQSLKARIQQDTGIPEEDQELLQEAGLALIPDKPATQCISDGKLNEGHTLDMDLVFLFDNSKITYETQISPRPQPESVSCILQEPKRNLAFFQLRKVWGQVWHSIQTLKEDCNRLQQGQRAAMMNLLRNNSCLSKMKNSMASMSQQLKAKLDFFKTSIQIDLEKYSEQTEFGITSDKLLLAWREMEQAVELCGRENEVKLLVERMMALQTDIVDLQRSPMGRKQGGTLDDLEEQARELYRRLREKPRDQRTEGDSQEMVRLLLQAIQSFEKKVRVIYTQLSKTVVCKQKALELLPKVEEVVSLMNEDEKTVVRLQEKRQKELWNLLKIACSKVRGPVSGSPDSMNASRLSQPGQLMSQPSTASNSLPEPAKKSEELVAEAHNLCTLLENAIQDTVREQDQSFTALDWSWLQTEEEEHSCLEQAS
# JAK3 = target: T2, JAK3 (Homo sapiens, UniProt P52333); assay: KinaseProfiler Assay
# T2 sequence (P52333 1-1124): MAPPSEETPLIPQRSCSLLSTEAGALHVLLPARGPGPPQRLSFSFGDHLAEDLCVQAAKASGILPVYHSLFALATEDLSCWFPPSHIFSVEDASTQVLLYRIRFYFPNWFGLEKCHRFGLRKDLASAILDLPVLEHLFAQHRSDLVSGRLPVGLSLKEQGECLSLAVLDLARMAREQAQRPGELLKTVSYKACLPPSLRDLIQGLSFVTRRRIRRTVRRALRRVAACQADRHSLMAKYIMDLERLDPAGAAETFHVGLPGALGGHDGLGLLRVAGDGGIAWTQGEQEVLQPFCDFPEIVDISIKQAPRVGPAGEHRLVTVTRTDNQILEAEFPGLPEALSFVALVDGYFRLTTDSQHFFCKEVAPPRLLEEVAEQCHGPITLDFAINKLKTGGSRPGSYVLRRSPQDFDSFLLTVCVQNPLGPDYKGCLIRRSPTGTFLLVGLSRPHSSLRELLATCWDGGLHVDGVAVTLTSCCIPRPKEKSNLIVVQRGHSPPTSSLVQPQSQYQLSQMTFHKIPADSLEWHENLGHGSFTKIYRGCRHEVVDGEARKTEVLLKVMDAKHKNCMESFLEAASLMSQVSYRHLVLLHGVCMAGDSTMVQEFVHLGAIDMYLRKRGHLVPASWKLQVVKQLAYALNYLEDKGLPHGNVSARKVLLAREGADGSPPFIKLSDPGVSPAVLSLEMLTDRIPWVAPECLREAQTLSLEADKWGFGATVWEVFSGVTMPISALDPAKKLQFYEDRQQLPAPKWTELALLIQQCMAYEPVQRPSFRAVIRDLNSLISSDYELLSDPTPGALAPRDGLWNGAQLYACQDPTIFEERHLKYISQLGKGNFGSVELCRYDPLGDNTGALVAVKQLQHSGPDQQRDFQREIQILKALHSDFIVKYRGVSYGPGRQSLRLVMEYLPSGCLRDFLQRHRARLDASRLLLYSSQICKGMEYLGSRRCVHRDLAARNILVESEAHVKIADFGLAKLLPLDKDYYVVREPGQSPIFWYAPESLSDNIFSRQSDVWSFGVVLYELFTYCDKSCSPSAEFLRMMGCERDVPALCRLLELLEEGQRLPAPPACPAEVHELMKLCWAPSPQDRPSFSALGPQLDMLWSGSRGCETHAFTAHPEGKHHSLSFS
# 3T3-L1 adipocytes = assay: Lipogenesis in 3T3-L1 adipocytes (Oil Red O / BODIPY); assay type: cell-based, murine; details: relative to solvent and positive controls
# Protocol: Prior to experiments, cells were cultured in DMEM containing 10% FBS-HI added 50 units penicillin/ml and 50 μg streptomycin/ml, and maintained in log phase prior to experimental setup. Cells were grown in a 5% CO2 humidified incubator at 37° C. Components of the pre-confluent medium included (1) 10% FBS/DMEM containing 4.5 g glucose/L; (2) 50 U/ml penicillin; and (3) 50 μg/ml streptomycin. Growth medium was made by adding 50 ml of heat inactivated FBS and 5 ml of penicillin/streptomycin to 500 ml DMEM. This medium was stored at 4° C. Before use, the medium was warmed to 37° C. in a water bath.
# 3T3-T1 cells were seeded at an initial density of 6×10^4 cells/cm^2 in 24-well plates. For two days, the cells were allowed grow to reach confluence. Following confluence, the cells were forced to differentiate into adipocytes by the addition of differentiation medium; this medium consisted of (1) 10% FBS/DMEM (high glucose); (2) 0.5 mM methylisobutylxanthine; (3) 0.5 μM dexamethasone and (4) 10 μg/ml insulin (MDI medium). After three days, the medium was changed to post-differentiation medium consisting of 10 μg/ml insulin in 10% FBS/DMEM.
# Whenever fresh media were added, fresh test material was also added.
# Oil Red 0 Staining—Triglyceride content of D6/D7-differentiated 3T3-L1 cells was estimated with Oil Red 0 according to the method of Kasturi and Joshi [Kasturi, R. and Joshi, V. C. […] Monolayer cells were washed with PBS (phosphate buffered saline, Mediatech) and fixed with 10% formaldehyde for ten minutes. Fixed cells were stained with an Oil Red 0 working solution of three parts 0.6% Oil Red O/isopropanol stock solution and two parts water for one hour and the excess stain was washed once with water. The resulting stained oil droplets were extracted from the cells with isopropanol and quantified by spectrophotometric analysis at 540 nm (MEL312e BIO-KINETICS READER, Bio-Tek Instruments, Winooski, Vt.).
# Briefly, media were removed and cells were washed once with non-sterile PBS. A stock 1000× BODIPY/DMSO solution was made by dissolving 1 mg BODIPY in 1 ml DMSO (1,000 μg BODIPY/ml). […] One-hundred μl of this working solution (1 μg BODIPY) was added to each well of a 96-well microtiter plate. After 15 min on an orbital shaker (DS-500, VWR Scientific Products, South Plainfield, N.J.) at ambient temperature, the cells were washed with 100 μl PBS followed by the addition of 100 μl PBS for reading for spectrofluorometric determination of BODIPY incorporation into the cells.
# Nonpolar lipid incorporation was represented relative to the nonpolar lipid accumulation of fully differentiated cells in the solvent controls.
# CK1γ3 = CK1γ3 (Homo sapiens, UniProt Q9Y6M4); assay: KinaseProfiler Assay
# PKCα = PKCα (Homo sapiens, UniProt P17252); assay: KinaseProfiler Assay
# EphA2 = EphA2 (Homo sapiens, UniProt P29317); assay: KinaseProfiler Assay
# GSK3β = GSK3β (Homo sapiens, UniProt P49841); assay: KinaseProfiler Assay
# AMPK = assay: KinaseProfiler Assay
# CDK6/cyclinD3 = CDK6/cyclinD3 (Homo sapiens, UniProt Q00534); assay: KinaseProfiler Assay
# IRAK1 = IRAK1 (Homo sapiens, UniProt P51617); assay: KinaseProfiler Assay
# IGF-1R = IGF-1R (Homo sapiens, UniProt P08069); assay: KinaseProfiler Assay
# IGF-1R, sequence (P08069 31-1367): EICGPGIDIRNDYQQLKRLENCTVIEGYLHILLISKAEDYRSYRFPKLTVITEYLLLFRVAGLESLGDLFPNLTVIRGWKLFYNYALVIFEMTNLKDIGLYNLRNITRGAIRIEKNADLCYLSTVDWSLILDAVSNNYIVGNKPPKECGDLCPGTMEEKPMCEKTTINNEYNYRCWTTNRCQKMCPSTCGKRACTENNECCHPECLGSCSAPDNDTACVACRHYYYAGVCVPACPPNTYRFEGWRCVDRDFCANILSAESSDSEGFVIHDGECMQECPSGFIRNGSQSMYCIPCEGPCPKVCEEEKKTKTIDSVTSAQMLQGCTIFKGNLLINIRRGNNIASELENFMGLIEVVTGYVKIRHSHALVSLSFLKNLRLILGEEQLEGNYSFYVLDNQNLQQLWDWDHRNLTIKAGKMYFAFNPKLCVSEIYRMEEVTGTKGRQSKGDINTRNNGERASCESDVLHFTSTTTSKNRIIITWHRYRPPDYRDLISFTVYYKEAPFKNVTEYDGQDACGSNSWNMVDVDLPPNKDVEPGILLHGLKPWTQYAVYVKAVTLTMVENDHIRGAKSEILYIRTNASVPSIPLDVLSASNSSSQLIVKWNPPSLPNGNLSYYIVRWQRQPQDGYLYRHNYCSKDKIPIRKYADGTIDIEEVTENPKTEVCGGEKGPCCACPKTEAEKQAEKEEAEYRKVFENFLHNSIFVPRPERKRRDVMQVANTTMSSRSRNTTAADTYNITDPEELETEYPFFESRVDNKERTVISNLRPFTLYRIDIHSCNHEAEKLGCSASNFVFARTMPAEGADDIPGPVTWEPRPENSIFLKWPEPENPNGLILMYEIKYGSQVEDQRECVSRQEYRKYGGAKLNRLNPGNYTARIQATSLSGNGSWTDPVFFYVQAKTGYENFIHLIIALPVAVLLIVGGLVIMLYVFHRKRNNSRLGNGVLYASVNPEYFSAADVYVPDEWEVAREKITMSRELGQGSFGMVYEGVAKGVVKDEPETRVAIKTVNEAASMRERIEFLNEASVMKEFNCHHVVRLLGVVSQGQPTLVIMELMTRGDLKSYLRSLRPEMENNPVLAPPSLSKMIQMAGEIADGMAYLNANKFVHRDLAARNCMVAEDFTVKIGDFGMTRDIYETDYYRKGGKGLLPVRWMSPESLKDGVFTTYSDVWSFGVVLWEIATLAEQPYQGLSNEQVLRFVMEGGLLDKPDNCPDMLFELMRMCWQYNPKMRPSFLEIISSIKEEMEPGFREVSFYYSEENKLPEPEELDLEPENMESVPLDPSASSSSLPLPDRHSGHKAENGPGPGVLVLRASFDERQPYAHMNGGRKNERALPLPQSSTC
# CDK6/cyclinD3, sequence (Q00534 whole entry): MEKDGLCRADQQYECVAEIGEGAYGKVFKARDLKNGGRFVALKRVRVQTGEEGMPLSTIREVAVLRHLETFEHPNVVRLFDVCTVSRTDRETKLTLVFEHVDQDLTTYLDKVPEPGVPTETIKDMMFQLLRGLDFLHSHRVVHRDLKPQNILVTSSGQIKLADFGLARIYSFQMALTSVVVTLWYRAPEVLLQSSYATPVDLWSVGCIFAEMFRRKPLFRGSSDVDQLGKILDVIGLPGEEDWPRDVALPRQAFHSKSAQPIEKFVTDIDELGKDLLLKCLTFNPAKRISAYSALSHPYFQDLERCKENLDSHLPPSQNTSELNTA
# CDK6/cyclinD3, sequence (P30281 whole entry partner): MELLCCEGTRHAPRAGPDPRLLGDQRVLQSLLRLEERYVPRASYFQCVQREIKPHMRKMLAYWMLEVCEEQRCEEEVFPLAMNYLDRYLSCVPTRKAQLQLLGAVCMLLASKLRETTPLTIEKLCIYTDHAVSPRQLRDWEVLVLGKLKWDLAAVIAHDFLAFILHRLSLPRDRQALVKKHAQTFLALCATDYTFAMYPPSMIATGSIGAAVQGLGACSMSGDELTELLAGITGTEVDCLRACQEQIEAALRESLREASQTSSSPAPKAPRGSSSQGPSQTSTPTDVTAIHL
# CK1γ3, sequence (Q9Y6M4 whole entry): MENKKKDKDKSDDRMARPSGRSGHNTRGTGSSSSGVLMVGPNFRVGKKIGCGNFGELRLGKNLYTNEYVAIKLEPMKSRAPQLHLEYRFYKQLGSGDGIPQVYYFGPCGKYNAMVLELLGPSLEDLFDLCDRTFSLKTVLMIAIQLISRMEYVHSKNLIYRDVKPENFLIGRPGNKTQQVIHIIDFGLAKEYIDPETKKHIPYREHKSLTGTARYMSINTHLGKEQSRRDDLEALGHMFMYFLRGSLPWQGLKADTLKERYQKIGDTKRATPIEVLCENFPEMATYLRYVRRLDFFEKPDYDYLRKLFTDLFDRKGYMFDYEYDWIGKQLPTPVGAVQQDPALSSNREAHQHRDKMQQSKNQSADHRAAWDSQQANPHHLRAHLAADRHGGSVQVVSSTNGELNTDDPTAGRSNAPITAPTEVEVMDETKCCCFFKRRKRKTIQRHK
# EphA2, sequence (P29317 24-976): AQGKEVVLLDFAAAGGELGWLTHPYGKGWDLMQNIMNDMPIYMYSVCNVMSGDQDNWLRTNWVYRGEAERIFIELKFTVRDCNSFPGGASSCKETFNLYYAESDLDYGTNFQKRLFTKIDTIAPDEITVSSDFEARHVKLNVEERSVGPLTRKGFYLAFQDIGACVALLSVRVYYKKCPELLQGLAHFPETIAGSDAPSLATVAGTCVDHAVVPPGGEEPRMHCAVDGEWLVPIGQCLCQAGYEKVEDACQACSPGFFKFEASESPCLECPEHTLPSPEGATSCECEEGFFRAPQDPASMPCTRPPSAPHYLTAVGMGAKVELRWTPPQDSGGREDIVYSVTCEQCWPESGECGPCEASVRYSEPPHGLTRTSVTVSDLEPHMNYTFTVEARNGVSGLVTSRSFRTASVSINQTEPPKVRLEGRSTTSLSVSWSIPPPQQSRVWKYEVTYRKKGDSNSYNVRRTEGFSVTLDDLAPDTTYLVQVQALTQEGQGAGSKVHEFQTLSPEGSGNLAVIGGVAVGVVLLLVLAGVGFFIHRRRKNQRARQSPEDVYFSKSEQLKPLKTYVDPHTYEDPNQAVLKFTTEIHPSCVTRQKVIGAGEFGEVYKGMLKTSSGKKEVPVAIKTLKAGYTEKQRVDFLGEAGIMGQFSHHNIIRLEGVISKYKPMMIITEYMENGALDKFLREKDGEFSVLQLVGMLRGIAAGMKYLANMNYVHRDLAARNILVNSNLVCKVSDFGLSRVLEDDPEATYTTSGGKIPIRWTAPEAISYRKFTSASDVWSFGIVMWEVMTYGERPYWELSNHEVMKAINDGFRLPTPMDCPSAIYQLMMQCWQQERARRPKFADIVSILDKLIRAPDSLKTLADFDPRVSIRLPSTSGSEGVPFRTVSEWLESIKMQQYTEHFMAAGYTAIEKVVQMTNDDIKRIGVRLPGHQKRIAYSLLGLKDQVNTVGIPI
# GSK3β, sequence (P49841 whole entry): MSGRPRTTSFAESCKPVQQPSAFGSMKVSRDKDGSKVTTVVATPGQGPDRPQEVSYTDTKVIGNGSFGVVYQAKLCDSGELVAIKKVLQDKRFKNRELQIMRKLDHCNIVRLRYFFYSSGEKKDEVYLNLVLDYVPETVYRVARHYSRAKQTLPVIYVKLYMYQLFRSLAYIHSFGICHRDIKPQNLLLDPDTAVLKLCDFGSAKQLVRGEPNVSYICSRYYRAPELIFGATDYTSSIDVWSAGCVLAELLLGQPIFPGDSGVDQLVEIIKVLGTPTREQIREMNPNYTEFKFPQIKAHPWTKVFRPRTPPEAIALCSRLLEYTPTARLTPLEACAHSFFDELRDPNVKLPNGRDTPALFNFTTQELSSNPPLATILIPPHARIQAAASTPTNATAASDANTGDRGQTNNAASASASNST
structure (smiles),measurement,setting,value
"COc1cc(O)c(CC=C(C)C)c(O)c1C(=O)/C=C/c1ccc(O)cc1 [Xanthohumol, xanthohumol]","Kinase activity, % of Control",IKKβ; 1 ug/ml,145 % of Control
same,"Kinase activity, % of Control",IKKβ; 5 ug/ml,118 % of Control
same,"Kinase activity, % of Control",IKKβ; 25 ug/ml,61 % of Control
same,"Kinase activity, % of Control",IKKβ; 50 ug/ml,44 % of Control
same,"Kinase activity, % of Control",JAK3; 1 ug/ml,104 % of Control
same,"Kinase activity, % of Control",JAK3; 5 ug/ml,84 % of Control
same,"Kinase activity, % of Control",JAK3; 25 ug/ml,17 % of Control
same,"Kinase activity, % of Control",JAK3; 50 ug/ml,5 % of Control
same,adipogenic / lipogenic response,3T3-L1 adipocytes,comparable to indomethacin and troglitazone
same,"Kinase activity, % of Control",CK1γ3; 1 ug/ml,98 % of Control
same,"Kinase activity, % of Control",CK1γ3; 5 ug/ml,51 % of Control
same,"Kinase activity, % of Control",CK1γ3; 25 ug/ml,22 % of Control
same,"Kinase activity, % of Control",CK1γ3; 50 ug/ml,15 % of Control
same,"Kinase activity, % of Control",PKCα; 1 ug/ml,100 % of Control
same,"Kinase activity, % of Control",PKCα; 5 ug/ml,100 % of Control
same,"Kinase activity, % of Control",PKCα; 50 ug/ml,83 % of Control
same,"Kinase activity, % of Control",EphA2; 1 ug/ml,124 % of Control
same,"Kinase activity, % of Control",EphA2; 25 ug/ml,121 % of Control
same,"Kinase activity, % of Control",EphA2; 50 ug/ml,52 % of Control
same,"Kinase activity, % of Control",GSK3β; 1 ug/ml,120 % of Control
same,"Kinase activity, % of Control",GSK3β; 5 ug/ml,99 % of Control
same,"Kinase activity, % of Control",GSK3β; 25 ug/ml,25 % of Control
same,"Kinase activity, % of Control",GSK3β; 50 ug/ml,3 % of Control
same,"Kinase activity, % of Control",AMPK; 1 ug/ml,122 % of Control
same,"Kinase activity, % of Control",AMPK; 5 ug/ml,113 % of Control
same,"Kinase activity, % of Control",AMPK; 25 ug/ml,90 % of Control
same,"Kinase activity, % of Control",AMPK; 50 ug/ml,81 % of Control
same,"Kinase activity, % of Control",CDK6/cyclinD3; 1 ug/ml,110 % of Control
same,"Kinase activity, % of Control",CDK6/cyclinD3; 5 ug/ml,79 % of Control
same,"Kinase activity, % of Control",CDK6/cyclinD3; 25 ug/ml,23 % of Control
same,"Kinase activity, % of Control",CDK6/cyclinD3; 50 ug/ml,7 % of Control
same,"Kinase activity, % of Control",IRAK1; 1 ug/ml,129 % of Control
same,"Kinase activity, % of Control",IRAK1; 5 ug/ml,104 % of Control
same,"Kinase activity, % of Control",IRAK1; 50 ug/ml,36 % of Control
same,"Kinase activity, % of Control",IGF-1R; 1 ug/ml,107 % of Control
same,"Kinase activity, % of Control",IGF-1R; 25 ug/ml,129 % of Control
same,"Kinase activity, % of Control",IGF-1R; 50 ug/ml,139 % of Control
